Data taken from patent US20090196878A1, “Intestinal epithelial glucose sensor” (priority 2004, published 2009).

Columns and labels:
[1] = tested on: SGLT1 expression; experiment: Dietary trial, SGLT1 mRNA by real-time PCR in wild-type mice; assay type: in vivo, mouse; conditions: proximal and mid intestinal regions, low carbohydrate diet plus sucralose 2 mM, 2 weeks, qPCR
Description: (§1) Male CD-1 and C57BL/6 mice, six weeks old, from Charles River Laboratories were used. The α-gustducin knock out mouse was described by Wong et al. (1996); the T1R3 knock out mouse was described by Damak et al. 2003).
(§2) High and low carbohydrate diets were resp. TestDiet® 5810 and TestDiet® 5787-9. For the sucralose test, the low carbohydrate diet was supplemented with sucralose (1,6-dichloro-1,6-dideoxy-beta-D-fructofuranosyl-4-chloro-4-deoxy-alpha-galactopyranoside) at 2 mM.
(§3) Animals were killed by concussion followed by cervical dislocation. The entire small intestine was removed and flushed with ice-cold 0.9% NaCl, opened longitudinally, rinsed in saline and mucous removed by blotting. The small intestine was then divided into proximal, mid and distal sections and the mucosa removed by scraping. Mucosal scrapings were frozen immediately in liquid nitrogen and stored at −80° C. until use. […]
(§4) Second, groups of wildtype and T1R3 and α-gustducin KO mice were placed on each of three iso-caloric diets a) low carbohydrate, b) high carbohydrate, and c) low carbohydrate+artificial sweetener (sucralose), for two weeks. After this time the mice were killed and the small intestines were removed, divided into proximal, mid and distal regions, and SGLT1 expression, at protein and mRNA levels, were measured in each.

[2] = tested on: SGLT1 expression; experiment: Dietary trial, SGLT1 protein by western blot of luminal membrane vesicles in wild-type mice; assay type: in vivo, mouse; conditions: low carbohydrate + sucralose diet, 2 weeks
Description: as §1, §2, §3, §4

[3] = tested on: SGLT1 expression; experiment: Dietary trial, SGLT1 expression in T1R3 knock-out mice; assay type: in vivo, mouse; conditions: T1R3 KO mice, low-carbohydrate + sucralose diet, 2 weeks
Description: as §1, §2, §3, §4

[4] = tested on: SGLT1 expression; experiment: Dietary trial, SGLT1 expression in α-gustducin knock-out mice; assay type: in vivo, mouse; conditions: α-gustducin KO mice, low-carbohydrate + sucralose diet, 2 weeks
Description: as §1, §2, §3, §4

[5] = reported, Roberts et al. 2000; cited from earlier work

OC[C@H]1O[C@H](O[C@]2(CCl)O[C@H](CCl)[C@@H](O)[C@@H]2O)[C@H](O)[C@@H](O)[C@H]1Cl [sucralose, 1,6-dichloro-1,6-dideoxy-beta-D-fructofuranosyl-4-chloro-4-deoxy-alpha-galactopyranoside]
increase in SGLT1 mRNA [1]: 30-70% | SGLT1 protein expression [2]: increased | SGLT1 mRNA [3]: no increase | SGLT1 protein [3]: no increase | SGLT1 mRNA [4]: no increase | SGLT1 protein [4]: no increase | hydrolysis, transport and metabolism within the mammalian small intestine [5]: non-hydrolysed, non-transported and non-metabolised
